From ChEMBL document CHEMBL1201862, “PubChem BioAssay data set” (2004)
Calls of active or inactive are those of the source.

How the values were obtained:
[1] = molecular target: Benomyl/methotrexate resistance protein (Candida albicans, UniProt P28873); assay: CaMdr1 efflux pump inhibitor potency, dose response, singleplex, Cherry Pick1 hits (AID 588608); assay type: functional
[2] = molecular target: Multidrug resistance protein CDR1 (Candida albicans, UniProt P43071); assay: CaCDR1 efflux pump inhibitors in yeast, dose response, S. cerevisiae AD1-8u, singleplex, Cherry Pick1 hits (AID 588606); assay type: functional
[3] = molecular target: Protein disulfide-isomerase (Homo sapiens, UniProt P07237); assay: PDI inhibitors, insulin aggregation turbidity, dose response, biochemical, absorbance, cherry-picked samples (AID 602350); assay type: functional
[4] = Luminescence Cell-Based Dose Response HTS to Identify Inhibitors of Luciferase Translation or Activity in H4-C Neuroglioblastoma Cells. [Related pubchem assays: 1813 (Primary HTS), 1827 (Project Summary)]; assay type: functional
[5] = Luminescence Cell-Based Dose Response HTS to Identify Activators of Luciferase Translation or Activity in H4-C Neuroglioblastoma Cells. [Related pubchem assays: 1829 (Project Summary), 1814 (Primary HTS)]; assay type: functional
[6] = inhibitors of firefly luciferase expression or activity, dose response, H4 neuroglioma cells, luminescence (AID 1990); assay type: functional, cell-based
[7] = luciferase reporter signal reduction – luminescence, H4-C neuroglioblastoma cells, dose response (AID 2458); assay type: functional, cell-based;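 further: H4 neuroglioblastoma cells stably carrying a luciferase reporter gene fusion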
[8] = Luminescence Cell-Based Dose Response HTS to Identify Activators of 5'UTR Stem-Loop Driven Prion Protein mRNA Translation in H4-C Neuroglioblastoma Cells. [Related pubchem assays: 1829 (Project Summary), 1814 (Primary HTS)]; assay type: functional
[9] = Luminescence Cell-Based Dose HTS Response to Identify Inhibitors of 5'UTR Stem-Loop Driven Prion Protein mRNA Translation in H4-C Neuroglioblastoma Cells. [Related pubchem assays (depositor defined):AID1814, AID1827]; assay type: functional
BJ [10] = assay: cytotoxicity toward BJ-TERT fibroblasts, dose response, cell-based, RAS-independent, luminescence (AID 1933); assay type: functional; conditions: Homo sapiens
cells = assay type: functional, cell-based
[11] = Luminescence Cell-Based Dose Response HTS to Identify Inhibitors of 5'UTR Stem-Loop Driven Prion Protein mRNA Translation in H4 Neuroglioblastoma Cells. [Related pubchem assays: 1827 (Project Summary), 1813 (Primary HTS)]; assay type: functional
[12] = inhibitors of SNCA 5'UTR-driven reporter translation, confirmation, H4 neuroglioma cells, luminescence (AID 1988); assay type: functional, cell-based
BJ [13] = assay: cells; assay type: functional, cell-based; conditions: Homo sapiens
[14] = Luminescence Cell-Based Dose Confirmation HTS to Identify Inhibitors of 5'UTR Stem-Loop Driven Alpha-Synuclein mRNA Translation in H4 Neuroglioblastoma Cells. [Related pubchem assays: 1827 (Project Summary), 1813 (Primary HTS)]; assay type: functional
BJ [15] = assay: cytotoxicity toward BJ-TERT-LT-ST fibroblasts, dose response, cell-based, RAS-independent, luminescence (AID 1935); assay type: functional; conditions: Homo sapiens;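 further: BJ fibroblasts immortalized with TERT plus LT and ST oncogenes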
[16] = cytotoxicity toward DRD oncogenic fibroblasts, dose response, cell-based, non-viral oncogenic, luminescence (AID 1934); assay type: functional; conditions: Homo sapiens
[17] = inhibitors of SNCA 5'UTR-driven translation, confirmation, luminescence, H4 neuroglioblastoma cells, dose confirmation (AID 2454); assay type: functional, cell-based;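 further: H4 neuroglioblastoma cells carrying an alpha-synuclein 5'UTR luciferase reporter; potency for inhibition of the luciferase signal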
BJ [18] = assay: cytotoxicity toward Ras-transformed BJeLR fibroblasts, dose response, cell-based, alamar blue fluorescence, cherrypicked samples (AID 2631); assay type: functional; conditions: Homo sapiens;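 further: confirmatory dose-response assay in RAS-dependent BJ fibroblasts engineered with TERT, LT and ST, with cytotoxicity read by fluorescence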
Beta-lactamase [19] = molecular target: Beta-lactamase (Pseudomonas aeruginosa, UniProt Q79MP6);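 further: biochemical dose-response test of metallo-beta-lactamase enzyme inhibition, read out by epi-absorbance; purified recombinant IMP-1 metallo-beta-lactamase with nitrocefin as substrate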
Beta-lactamase [20] = molecular target: Beta-lactamase (Salmonella choleraesuis (strain SC-B67), UniProt Q5J463)
ORF 73 = ORF 73 (Human herpesvirus 8, UniProt O40947); assay: inhibitors of C-LANA binding to LBS DNA, dose response, biochemical, fluorescence polarization, cherry-picked samples (AID 504725); parameters: species or system Human gammaherpesvirus 8;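 further: fluorescence polarization of a labeled DNA duplex reporting LANA DNA binding; potency is for inhibitors that block LANA binding to the DNA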
Insulin-degrading enzyme [21] = molecular target: T1, Insulin-degrading enzyme (Homo sapiens, UniProt P14735); assay: activators of recombinant IDE enzyme, dose response, counter-screen for IDE activator project, biochemical, fluorescence polarization (AID 588681)
Insulin-degrading enzyme [22] = molecular target: T1, Insulin-degrading enzyme; assay: activators of endogenous IDE in HEK cells, dose response, cell-based, fluorescence polarization (AID 588439); assay type: functional
HEK293 [23] = assay: HEK cell cytotoxicity by LDH release, dose response, cytotoxicity control for IDE activator project, fluorescence, HEK cells (AID 588440); assay type: functional, cell-based; conditions: Homo sapiens;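 further: cytotoxicity by LDH release measuring loss of membrane integrity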
HEK293 [24] = assay: optical interference in Abeta FP readout, dose response, artefact control for IDE activator project, biochemical, fluorescence polarization (AID 588442); assay type: functional, cell-based; conditions: Homo sapiens
Large T antigen = Large T antigen (Simian virus 40, UniProt P03070); assay type: functional, Betapolyomavirus macacae;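 further: Confirmatory-stage PubChem screen for compounds that inhibit SV40 T antigen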
[25] = molecular target: T2, DNA dC->dU-editing enzyme APOBEC-3A (Homo sapiens, UniProt P31941); assay: APOBEC3A DNA deaminase inhibitors, dose response, biochemical (AID 504722); assay type: functional
[26] = molecular target: T3, DNA dC->dU-editing enzyme APOBEC-3G (Homo sapiens, UniProt Q9HC16); assay: Dose Response confirmation of small molecule APOBEC3G DNA Deaminase Inhibitors via a fluorescence-based single-stranded DNA deaminase assay. [Related pubchem assays (depositor defined):AID493012, AID493028]; assay type: functional
[27] = molecular target: T2, DNA dC->dU-editing enzyme APOBEC-3A; assay: SAR analysis of small molecule inhibitors of APOBEC3A DNA Deaminase via a fluorescence-based single-stranded DNA deaminase assay - Set 2.; assay type: functional; conditions: read-out: IC50_Mean
[28] = molecular target: T3, DNA dC->dU-editing enzyme APOBEC-3G; assay: SAR analysis of small molecule inhibitors of APOBEC3G DNA Deaminase via a fluorescence-based single-stranded DNA deaminase assay - Set 2.; assay type: functional; conditions: read-out: IC50_Mean
[29] = molecular target: T3, DNA dC->dU-editing enzyme APOBEC-3G; assay: APOBEC3G deaminase inhibitors, SAR follow-up, biochemical, fluorescence, single-stranded DNA substrate (AID 602136); assay type: functional; conditions: read-out: IC50_Mean
[30] = molecular target: T2, DNA dC->dU-editing enzyme APOBEC-3A; assay: SAR analysis of small molecule inhibitors of APOBEC3A DNA Deaminase via a fluorescence-based single-stranded DNA deaminase assay.; assay type: functional; conditions: read-out: IC50_Mean
DNA topoisomerase = DNA topoisomerase (Yersinia pestis, UniProt A0A2S9PM60); assay: Y. pestis Topo-I inhibitors, cleavage product readout, dose response, biochemical, cherry-pick (AID 588525)
Cytochrome P450 2D6 = Cytochrome P450 2D6 (Homo sapiens, UniProt P10635);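 further: CYP2D6 member of a cytochrome P450 panel assay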
Cytochrome P450 2C9 = Cytochrome P450 2C9 (Homo sapiens, UniProt P11712)
[31] = THP-1 cell cytotoxicity, cytotoxicity control, set 4 (AID 504911); assay type: functional; conditions: Mycobacterium tuberculosis
[32] = THP-1 cell cytotoxicity, cytotoxicity control, set 6 (AID 602433); assay type: functional; conditions: Mycobacterium tuberculosis
[33] = THP-1 cell cytotoxicity, dose response, cytotoxicity control, set 3 (AID 504852); assay type: functional; conditions: Mycobacterium tuberculosis

T2 sequence (P31941 whole entry): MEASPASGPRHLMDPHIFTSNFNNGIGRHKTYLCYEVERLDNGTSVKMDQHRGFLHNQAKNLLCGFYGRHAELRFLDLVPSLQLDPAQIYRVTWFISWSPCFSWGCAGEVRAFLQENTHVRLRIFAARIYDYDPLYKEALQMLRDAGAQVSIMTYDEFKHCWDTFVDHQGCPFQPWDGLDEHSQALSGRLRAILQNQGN
T3 sequence (Q9HC16 whole entry): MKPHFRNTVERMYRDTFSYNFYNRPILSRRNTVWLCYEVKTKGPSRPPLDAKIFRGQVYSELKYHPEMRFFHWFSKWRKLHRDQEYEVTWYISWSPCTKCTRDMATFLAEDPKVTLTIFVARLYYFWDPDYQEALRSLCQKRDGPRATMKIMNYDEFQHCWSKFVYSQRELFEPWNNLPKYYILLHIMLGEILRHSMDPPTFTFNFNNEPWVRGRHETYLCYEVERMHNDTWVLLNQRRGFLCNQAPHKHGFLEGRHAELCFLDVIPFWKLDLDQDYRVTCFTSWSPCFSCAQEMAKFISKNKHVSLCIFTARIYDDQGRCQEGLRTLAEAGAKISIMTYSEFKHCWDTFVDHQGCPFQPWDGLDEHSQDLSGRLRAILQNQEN
T1 sequence (P14735 whole entry): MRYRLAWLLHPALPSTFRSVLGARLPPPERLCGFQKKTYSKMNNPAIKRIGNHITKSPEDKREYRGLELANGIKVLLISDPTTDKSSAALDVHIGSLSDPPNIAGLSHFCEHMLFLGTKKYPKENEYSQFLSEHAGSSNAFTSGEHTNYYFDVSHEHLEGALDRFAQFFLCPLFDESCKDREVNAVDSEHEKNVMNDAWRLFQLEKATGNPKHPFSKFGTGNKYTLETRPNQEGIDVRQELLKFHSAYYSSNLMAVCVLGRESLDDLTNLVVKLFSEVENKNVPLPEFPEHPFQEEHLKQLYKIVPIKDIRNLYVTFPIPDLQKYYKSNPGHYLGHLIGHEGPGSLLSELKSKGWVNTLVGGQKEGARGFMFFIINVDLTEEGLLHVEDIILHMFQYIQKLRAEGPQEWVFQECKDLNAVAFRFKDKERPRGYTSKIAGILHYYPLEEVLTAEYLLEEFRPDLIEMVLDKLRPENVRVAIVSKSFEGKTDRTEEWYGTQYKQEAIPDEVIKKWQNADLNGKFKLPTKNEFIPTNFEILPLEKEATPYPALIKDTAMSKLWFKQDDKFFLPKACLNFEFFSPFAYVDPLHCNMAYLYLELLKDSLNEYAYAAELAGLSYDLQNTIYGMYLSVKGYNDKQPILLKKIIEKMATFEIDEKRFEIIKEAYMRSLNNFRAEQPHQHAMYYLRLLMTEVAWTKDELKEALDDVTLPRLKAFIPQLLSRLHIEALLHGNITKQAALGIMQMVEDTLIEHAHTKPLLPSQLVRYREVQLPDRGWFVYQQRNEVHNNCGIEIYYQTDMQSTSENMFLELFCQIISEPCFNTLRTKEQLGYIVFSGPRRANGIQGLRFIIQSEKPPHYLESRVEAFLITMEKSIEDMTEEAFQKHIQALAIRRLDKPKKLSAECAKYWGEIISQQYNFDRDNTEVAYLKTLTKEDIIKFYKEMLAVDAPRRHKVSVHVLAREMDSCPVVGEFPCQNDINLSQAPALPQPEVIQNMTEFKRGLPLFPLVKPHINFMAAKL
Chain of Benomyl/methotrexate resistance protein (P28873 whole entry): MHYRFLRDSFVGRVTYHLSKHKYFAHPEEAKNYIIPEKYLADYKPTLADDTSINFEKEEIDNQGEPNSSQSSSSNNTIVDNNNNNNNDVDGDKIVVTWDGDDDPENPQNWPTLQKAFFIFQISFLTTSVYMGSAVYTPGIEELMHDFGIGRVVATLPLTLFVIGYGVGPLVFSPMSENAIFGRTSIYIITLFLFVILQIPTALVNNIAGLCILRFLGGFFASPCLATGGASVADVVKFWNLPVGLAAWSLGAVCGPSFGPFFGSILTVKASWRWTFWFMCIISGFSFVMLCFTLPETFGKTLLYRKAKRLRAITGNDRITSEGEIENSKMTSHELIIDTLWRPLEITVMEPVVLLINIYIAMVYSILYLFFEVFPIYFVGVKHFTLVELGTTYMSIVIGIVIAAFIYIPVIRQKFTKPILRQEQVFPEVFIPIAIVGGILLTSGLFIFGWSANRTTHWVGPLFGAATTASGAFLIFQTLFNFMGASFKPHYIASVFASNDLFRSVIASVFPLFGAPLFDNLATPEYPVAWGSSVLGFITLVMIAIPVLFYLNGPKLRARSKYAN
Chain of Beta-lactamase (Pseudomonas aeruginosa, UniProt Q79MP6) (Q79MP6 whole entry): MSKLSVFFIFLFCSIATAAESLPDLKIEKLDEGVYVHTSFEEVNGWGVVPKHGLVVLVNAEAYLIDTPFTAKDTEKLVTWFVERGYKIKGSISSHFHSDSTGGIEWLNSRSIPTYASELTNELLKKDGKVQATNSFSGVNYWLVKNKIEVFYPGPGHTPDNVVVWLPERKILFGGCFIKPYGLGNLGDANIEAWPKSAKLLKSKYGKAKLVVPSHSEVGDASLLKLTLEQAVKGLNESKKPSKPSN
Chain of Protein disulfide-isomerase (P07237 whole entry): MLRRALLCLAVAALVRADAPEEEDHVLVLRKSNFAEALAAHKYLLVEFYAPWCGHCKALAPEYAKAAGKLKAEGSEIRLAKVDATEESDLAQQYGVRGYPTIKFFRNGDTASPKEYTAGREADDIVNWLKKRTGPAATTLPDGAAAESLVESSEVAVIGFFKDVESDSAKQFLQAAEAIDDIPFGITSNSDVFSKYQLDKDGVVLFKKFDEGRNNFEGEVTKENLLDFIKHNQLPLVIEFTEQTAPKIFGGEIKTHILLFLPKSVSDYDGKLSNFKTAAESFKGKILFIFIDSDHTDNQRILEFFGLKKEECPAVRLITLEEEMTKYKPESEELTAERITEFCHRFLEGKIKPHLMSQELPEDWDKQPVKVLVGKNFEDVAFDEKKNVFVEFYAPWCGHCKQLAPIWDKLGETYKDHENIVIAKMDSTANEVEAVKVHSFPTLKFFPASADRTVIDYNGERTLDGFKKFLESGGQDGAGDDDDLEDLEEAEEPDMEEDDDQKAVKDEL
Chain of ORF 73 (O40947 whole entry): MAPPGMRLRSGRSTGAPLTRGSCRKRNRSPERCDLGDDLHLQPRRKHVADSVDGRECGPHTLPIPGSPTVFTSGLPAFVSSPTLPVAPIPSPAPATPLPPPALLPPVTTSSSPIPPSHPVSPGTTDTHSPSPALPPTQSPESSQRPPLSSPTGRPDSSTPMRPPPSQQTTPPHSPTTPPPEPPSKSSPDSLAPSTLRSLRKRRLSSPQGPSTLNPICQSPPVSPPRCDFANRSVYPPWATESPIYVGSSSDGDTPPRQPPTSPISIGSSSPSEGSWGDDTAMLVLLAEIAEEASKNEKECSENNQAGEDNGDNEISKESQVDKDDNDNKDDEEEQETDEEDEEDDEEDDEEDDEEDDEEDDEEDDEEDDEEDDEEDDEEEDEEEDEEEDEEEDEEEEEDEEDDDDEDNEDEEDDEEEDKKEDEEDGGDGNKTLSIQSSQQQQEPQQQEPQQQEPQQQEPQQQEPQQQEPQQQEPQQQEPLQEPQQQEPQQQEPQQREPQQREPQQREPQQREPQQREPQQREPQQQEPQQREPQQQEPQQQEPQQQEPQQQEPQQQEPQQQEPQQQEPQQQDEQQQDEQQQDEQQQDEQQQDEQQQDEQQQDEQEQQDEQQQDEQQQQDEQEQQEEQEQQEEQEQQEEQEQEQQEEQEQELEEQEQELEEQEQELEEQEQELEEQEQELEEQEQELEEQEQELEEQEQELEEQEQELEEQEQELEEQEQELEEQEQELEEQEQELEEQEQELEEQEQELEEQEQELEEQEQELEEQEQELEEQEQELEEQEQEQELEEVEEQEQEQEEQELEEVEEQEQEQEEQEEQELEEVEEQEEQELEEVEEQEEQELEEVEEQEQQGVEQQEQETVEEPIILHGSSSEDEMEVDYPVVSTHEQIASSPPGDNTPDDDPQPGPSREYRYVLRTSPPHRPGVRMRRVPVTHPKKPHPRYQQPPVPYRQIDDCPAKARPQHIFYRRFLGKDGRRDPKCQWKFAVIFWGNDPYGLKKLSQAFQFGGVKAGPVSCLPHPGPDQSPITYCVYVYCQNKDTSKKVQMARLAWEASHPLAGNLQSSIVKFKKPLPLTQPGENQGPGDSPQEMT
Chain of DNA topoisomerase (A0A2S9PM60 whole entry): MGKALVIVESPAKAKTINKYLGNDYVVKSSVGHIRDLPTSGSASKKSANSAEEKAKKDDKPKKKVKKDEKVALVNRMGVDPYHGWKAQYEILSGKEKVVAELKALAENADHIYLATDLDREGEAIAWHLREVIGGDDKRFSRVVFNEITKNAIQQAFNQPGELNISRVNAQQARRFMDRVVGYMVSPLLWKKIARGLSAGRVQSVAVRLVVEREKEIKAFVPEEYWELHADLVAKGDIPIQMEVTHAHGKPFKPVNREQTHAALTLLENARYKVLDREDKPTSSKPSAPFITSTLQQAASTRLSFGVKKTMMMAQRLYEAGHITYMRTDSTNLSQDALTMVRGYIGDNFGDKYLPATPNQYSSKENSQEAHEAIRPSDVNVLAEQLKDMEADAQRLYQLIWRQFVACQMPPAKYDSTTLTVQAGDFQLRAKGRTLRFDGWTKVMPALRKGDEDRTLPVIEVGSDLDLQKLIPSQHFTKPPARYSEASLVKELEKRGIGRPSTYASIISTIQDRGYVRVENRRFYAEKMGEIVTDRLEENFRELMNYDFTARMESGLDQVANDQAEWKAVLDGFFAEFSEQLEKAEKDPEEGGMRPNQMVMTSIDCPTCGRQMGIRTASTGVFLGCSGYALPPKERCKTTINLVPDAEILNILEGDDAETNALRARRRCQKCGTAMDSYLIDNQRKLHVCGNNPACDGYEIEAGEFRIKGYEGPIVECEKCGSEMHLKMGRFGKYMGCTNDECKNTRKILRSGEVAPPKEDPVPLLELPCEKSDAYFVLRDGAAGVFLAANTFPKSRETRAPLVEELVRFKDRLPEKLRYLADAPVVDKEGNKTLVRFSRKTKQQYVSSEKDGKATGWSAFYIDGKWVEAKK

Cc1ccc(S(=O)(=O)N2CCOCC2)cc1NC(=O)COC(=O)CNC(=O)c1ccccc1
EC50 [1]: 0.065 µM (active)
EC50 [2]: 0.018 µM (active)

Cc1c(O)ccc2c(CC(=O)N[C@@H](Cc3c[nH]c4ccccc34)C(=O)O)cc(=O)oc12
AC50 [3]: 6.76 µM (active)

CCOC(=O)c1[nH]c(C)c(C(=O)N2CCc3ccccc32)c1C
EC50 [4]: 1.01 µM (active)
EC50 [5]: 0.63 µM (inconclusive)
EC50 [6]: 4.63 µM (inconclusive)
EC50 [7]: 1.07 µM (active)
EC50 [8]: 0.353 µM (inconclusive)
EC50 [9]: 2.33 µM (active)
EC50 (BJ [10]): 0.704 µM (inconclusive)
EC50 (cells): 1.22 µM (active)
EC50 [11]: 4.65 µM (active)
EC50 [12]: < 0.1 µM (active)
EC50 (BJ [13]): 10.8 µM (active)
EC50 [14]: 2.13 µM (active)
EC50 (BJ [15]): 0.42 µM (inconclusive)
EC50 [16]: 0.656 µM (active)
EC50 [17]: 1.3 µM (active)
EC50 (BJ [18]): 0.252 µM (active)

CCOc1ccc(/C=C2\CCCc3c2nc2ccccc2c3C(=O)O)cc1OC
IC50 (Beta-lactamase [19]): 53.1 µM (inactive)
IC50 (Beta-lactamase [20]): 10.9 µM (inactive)
AC50 (ORF 73): 0.908 µM (active)
EC50 (Insulin-degrading enzyme [21]): > 54.7 µM (inactive)
EC50 (Insulin-degrading enzyme [22]): > 54.7 µM (inactive)
IC50 (HEK293 [23]): > 89.2 µM (inactive)
EC50 (HEK293 [24]): 5.38 µM (active)

CCCCCn1c(=O)c2ccccc2n2c(S)nnc12
IC50 (Large T antigen): 16.8 µM (active)
IC50 [25]: > 100 µM (inactive)
IC50 [26]: 1.47 µM (active)
IC50 [27]: > 99 µM (inactive)
IC50 [28]: 1.6 µM (active)
IC50 [29]: 1.2 µM (active)
IC50 [30]: > 99 µM (inactive)

Clc1cccc(CSc2nnc(-c3sccc3-n3cccc3)o2)c1
AC50 (DNA topoisomerase): 5.15 µM (active)
AC50 (Cytochrome P450 2D6): 0.398 µM (inconclusive)
AC50 (Cytochrome P450 2C9): inconclusive

CC(C)CCNC(=O)CSc1nc(O)c2ccccc2n1
CC50 [31]: > 100 µM (active)
CC50 [32]: > 100 µM (active)
CC50 [33]: > 100 µM (active)
